Results taken from ChEMBL document CHEMBL1146304, “Alpha-methyltryptamine sulfonamide derivatives as novel glucocorticoid receptor ligands” (Bioorg Med Chem Lett, 2007).
pIC50: −log10 of the molar value.

What was measured:
Glucocorticoid receptor = target: T1, Glucocorticoid receptor (Homo sapiens, UniProt P04150)
T1 sequence (P04150 whole entry): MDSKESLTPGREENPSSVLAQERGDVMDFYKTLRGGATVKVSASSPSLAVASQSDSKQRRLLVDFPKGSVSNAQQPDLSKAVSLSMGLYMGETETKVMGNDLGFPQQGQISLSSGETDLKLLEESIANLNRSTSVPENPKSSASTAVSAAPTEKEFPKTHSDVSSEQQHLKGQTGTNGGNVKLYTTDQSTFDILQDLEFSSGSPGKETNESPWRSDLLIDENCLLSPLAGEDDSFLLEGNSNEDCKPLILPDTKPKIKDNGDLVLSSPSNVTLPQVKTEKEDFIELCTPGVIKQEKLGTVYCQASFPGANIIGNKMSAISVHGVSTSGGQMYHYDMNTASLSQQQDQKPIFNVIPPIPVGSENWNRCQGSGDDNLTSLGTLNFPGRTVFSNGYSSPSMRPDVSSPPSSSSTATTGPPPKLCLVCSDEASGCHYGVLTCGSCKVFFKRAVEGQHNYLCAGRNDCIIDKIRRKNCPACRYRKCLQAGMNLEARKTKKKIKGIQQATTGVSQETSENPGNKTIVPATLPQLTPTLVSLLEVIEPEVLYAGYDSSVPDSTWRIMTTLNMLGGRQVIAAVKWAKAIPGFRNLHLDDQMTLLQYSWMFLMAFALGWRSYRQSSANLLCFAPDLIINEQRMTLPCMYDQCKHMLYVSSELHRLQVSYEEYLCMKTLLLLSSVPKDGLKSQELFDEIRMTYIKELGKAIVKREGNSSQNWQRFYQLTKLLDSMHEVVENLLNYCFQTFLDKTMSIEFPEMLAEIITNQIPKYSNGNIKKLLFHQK

Progesterone receptor = target: T2, Progesterone receptor (Homo sapiens, UniProt P06401); assay: Inhibition of human PR
T2 sequence (P06401 whole entry): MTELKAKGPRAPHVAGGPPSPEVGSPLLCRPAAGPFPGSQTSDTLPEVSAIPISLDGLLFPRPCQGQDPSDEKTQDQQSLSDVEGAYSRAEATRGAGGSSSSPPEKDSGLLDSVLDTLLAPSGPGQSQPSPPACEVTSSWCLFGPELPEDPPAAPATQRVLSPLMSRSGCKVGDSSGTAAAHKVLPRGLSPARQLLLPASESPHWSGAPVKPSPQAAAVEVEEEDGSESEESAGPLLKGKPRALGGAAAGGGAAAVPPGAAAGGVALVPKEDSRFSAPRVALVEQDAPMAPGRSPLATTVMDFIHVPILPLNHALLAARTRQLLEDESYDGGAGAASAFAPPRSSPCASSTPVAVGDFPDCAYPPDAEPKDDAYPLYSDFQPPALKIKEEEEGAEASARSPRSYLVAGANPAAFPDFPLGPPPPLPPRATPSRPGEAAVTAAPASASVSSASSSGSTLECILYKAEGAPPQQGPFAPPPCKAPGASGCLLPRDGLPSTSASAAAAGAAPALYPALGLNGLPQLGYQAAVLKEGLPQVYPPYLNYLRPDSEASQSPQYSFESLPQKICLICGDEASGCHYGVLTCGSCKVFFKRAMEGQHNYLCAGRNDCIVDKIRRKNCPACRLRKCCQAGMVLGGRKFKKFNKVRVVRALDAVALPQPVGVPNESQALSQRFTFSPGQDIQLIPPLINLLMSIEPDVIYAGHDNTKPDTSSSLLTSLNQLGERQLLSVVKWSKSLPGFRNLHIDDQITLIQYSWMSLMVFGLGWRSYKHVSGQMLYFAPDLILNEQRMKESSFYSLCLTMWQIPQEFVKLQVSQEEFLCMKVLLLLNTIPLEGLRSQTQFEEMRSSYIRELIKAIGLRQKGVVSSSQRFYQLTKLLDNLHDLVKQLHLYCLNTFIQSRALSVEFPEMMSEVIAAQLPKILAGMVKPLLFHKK

[1] = target: T3, Mineralocorticoid receptor (Homo sapiens, UniProt P08235); assay: Inhibition of human MR
T3 sequence (P08235 whole entry): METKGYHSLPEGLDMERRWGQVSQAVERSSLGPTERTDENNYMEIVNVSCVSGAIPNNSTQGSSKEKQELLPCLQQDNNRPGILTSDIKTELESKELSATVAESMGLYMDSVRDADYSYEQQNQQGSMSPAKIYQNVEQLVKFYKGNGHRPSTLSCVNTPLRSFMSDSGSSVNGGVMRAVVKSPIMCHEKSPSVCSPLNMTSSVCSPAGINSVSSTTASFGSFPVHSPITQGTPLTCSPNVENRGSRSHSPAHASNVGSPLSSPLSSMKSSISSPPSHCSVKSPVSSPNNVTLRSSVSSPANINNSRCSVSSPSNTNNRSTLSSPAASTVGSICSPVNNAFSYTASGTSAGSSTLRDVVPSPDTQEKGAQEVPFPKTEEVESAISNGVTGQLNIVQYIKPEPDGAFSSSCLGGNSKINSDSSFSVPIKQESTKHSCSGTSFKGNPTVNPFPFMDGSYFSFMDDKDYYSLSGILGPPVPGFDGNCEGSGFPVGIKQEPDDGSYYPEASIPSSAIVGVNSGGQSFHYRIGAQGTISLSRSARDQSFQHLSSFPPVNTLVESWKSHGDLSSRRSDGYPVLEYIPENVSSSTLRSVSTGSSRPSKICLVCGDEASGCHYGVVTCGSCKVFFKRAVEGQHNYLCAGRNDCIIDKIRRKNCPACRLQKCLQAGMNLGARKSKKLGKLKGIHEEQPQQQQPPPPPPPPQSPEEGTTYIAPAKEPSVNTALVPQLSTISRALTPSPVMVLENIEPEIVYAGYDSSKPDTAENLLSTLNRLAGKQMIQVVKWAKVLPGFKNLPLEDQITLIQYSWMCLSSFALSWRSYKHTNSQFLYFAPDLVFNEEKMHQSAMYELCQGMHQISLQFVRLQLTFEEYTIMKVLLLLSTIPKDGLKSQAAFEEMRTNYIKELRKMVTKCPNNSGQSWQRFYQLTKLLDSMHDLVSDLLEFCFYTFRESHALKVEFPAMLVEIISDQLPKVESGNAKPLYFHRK

Homo sapiens [2] = organism: Homo sapiens; assay: Selectivity for human glucocorticoid receptor over human progesterone receptor
Homo sapiens [3] = organism: Homo sapiens; assay: Selectivity for human glucocorticoid receptor over human mineralocorticoid receptor

CC(Cc1c[nH]c2ccccc12)NS(=O)(=O)c1ccc([N+](=O)[O-])cc1 (stereo unspecified)
pIC50 (Glucocorticoid receptor): < 5.00

CC(Cc1c[nH]c2ccccc12)NC(=O)Nc1c(Cl)cc(Cl)cc1Cl (stereo unspecified)
pIC50 (Glucocorticoid receptor): < 5.70

CC(Cc1c[nH]c2ccccc12)NS(=O)(=O)c1cccc(Cl)c1 (stereo unspecified)
pIC50 (Glucocorticoid receptor): 5.39

CC(Cc1c[nH]c2ccccc12)NS(=O)(=O)c1cc(Cl)c(Cl)cc1Cl (stereo unspecified)
pIC50 (Progesterone receptor): 6.36
pIC50 [1]: 6.00
pIC50 (Glucocorticoid receptor): 6.00

CC(Cc1c[nH]c2ccccc12)NS(=O)(=O)c1ccc(-c2ccccc2)cc1 (stereo unspecified)
pIC50 (Glucocorticoid receptor): 5.59

Cc1cc(C)c(S(=O)(=O)NC(C)Cc2c[nH]c3cc(F)ccc23)c(C)c1 (stereo unspecified)
pIC50 (Glucocorticoid receptor): 7.10

CC(Cc1c[nH]c2ccccc12)NS(=O)(=O)c1cccc(Cl)c1Cl (stereo unspecified)
pIC50 (Glucocorticoid receptor): 5.92

Cc1cc(C)c(CNC(C)Cc2c[nH]c3ccccc23)c(C)c1 (stereo unspecified)
pIC50 (Glucocorticoid receptor): < 5.70

C[C@@H]1C[C@H]2[C@@H]3CCC4=CC(=O)C=C[C@]4(C)[C@@]3(F)[C@@H](O)C[C@]2(C)[C@@]1(O)C(=O)CO [DEXAMETHASONE]
pIC50 (Progesterone receptor): < 5.70

Cc1cccc(Cl)c1S(=O)(=O)NC(C)Cc1c[nH]c2ccccc12 (stereo unspecified)
pIC50 (Glucocorticoid receptor): 6.55

Cc1[nH]c2ccccc2c1CC(C)NS(=O)(=O)c1c(Cl)cc(Cl)cc1Cl (stereo unspecified)
pIC50 (Glucocorticoid receptor): 6.24

CC(Cc1c[nH]c2ccccc12)NS(=O)(=O)c1c(C(C)C)cc(C(C)C)cc1C(C)C (stereo unspecified)
pIC50 (Progesterone receptor): < 5.70
pIC50 [1]: < 5.70
pIC50 (Glucocorticoid receptor): 7.17

CCC(Cc1c[nH]c2ccccc12)NS(=O)(=O)c1c(Cl)cc(Cl)cc1Cl (stereo unspecified)
pIC50 (Glucocorticoid receptor): 7.19

CC(Cc1c[nH]c2ccccc12)NS(=O)(=O)c1cc(Cl)cc(Cl)c1O (stereo unspecified)
pIC50 (Glucocorticoid receptor): < 5.00

Cc1cc(C)c(S(=O)(=O)NC(C)Cc2c[nH]c3c(C)cccc23)c(C)c1 (stereo unspecified)
pIC50 (Glucocorticoid receptor): 6.92

Cc1cc(C)c(S(=O)(=O)NC(C)Cc2c[nH]c3cc(C)ccc23)c(C)c1 (stereo unspecified)
pIC50 (Glucocorticoid receptor): 6.31

COc1ccc2[nH]cc(CC(C)NS(=O)(=O)c3c(Cl)cc(Cl)cc3Cl)c2c1 (stereo unspecified)
pIC50 (Glucocorticoid receptor): < 5.70

CC(Cc1c[nH]c2ccccc12)NS(=O)(=O)c1ccc(Cl)c(Cl)c1 (stereo unspecified)
pIC50 (Glucocorticoid receptor): 5.16

CC(Cc1cn(C)c2ccccc12)NS(=O)(=O)c1c(Cl)cc(Cl)cc1Cl (stereo unspecified)
pIC50 (Glucocorticoid receptor): < 5.70

CC(Cc1c[nH]c2ccccc12)NS(=O)(=O)c1ccc(C(C)(C)C)cc1 (stereo unspecified)
pIC50 (Progesterone receptor): < 5.70
pIC50 [1]: 5.97
pIC50 (Glucocorticoid receptor): 6.13

CC(Cc1c[nH]c2ccccc12)NS(=O)(=O)c1ccccc1[N+](=O)[O-] (stereo unspecified)
pIC50 (Glucocorticoid receptor): < 5.00

CC(Cc1c[nH]c2ccccc12)NS(=O)(=O)c1ccccc1 (stereo unspecified)
pIC50 (Glucocorticoid receptor): < 5.00

CC(=O)Nc1ccc(S(=O)(=O)NC(C)Cc2c[nH]c3ccccc23)cc1 (stereo unspecified)
pIC50 (Glucocorticoid receptor): < 5.00

Cc1cc(C)c(S(=O)(=O)NC(C)Cc2cc3ccccc3[nH]2)c(C)c1 (stereo unspecified)
pIC50 (Glucocorticoid receptor): < 5.70

Cc1cc(C)c(S(=O)(=O)NCCc2c[nH]c3ccccc23)c(C)c1
pIC50 (Glucocorticoid receptor): < 5.70

COC(=O)[C@H](Cc1c[nH]c2ccccc12)NS(=O)(=O)c1c(C)cc(C)cc1C
pIC50 (Glucocorticoid receptor): < 5.70

CC(Cc1c[nH]c2ccccc12)NS(=O)(=O)c1c(Cl)cc(Cl)cc1Cl (stereo unspecified)
Ratio IC50 (Homo sapiens [2]): 8
pIC50 (Progesterone receptor): 6.24
pIC50 [1]: 6.89
pIC50 (Glucocorticoid receptor): 7.19

CC(Cc1c[nH]c2ccccc12)NS(=O)(=O)c1cc(Cl)ccc1Cl (stereo unspecified)
pIC50 (Glucocorticoid receptor): 5.89

CC(Cc1c[nH]c2ccccc12)NS(=O)(=O)c1ccc(Cl)cc1Cl (stereo unspecified)
pIC50 (Progesterone receptor): < 5.70
pIC50 [1]: 6.07
pIC50 (Glucocorticoid receptor): 6.32

CCCc1ccc(S(=O)(=O)NC(C)Cc2c[nH]c3ccccc23)cc1 (stereo unspecified)
pIC50 (Glucocorticoid receptor): 5.80

Cc1cc(C)c(S(=O)(=O)NC(C)Cc2c[nH]c3ccc(F)cc23)c(C)c1 (stereo unspecified)
pIC50 (Glucocorticoid receptor): 7.19

CC(Cc1c[nH]c2ccccc12)NS(=O)(=O)c1ccc(Cl)cc1 (stereo unspecified)
pIC50 (Glucocorticoid receptor): 5.68

CC(Cc1c[nH]c2ccccc12)NS(=O)(=O)c1cc(Cl)cc(Cl)c1 (stereo unspecified)
pIC50 (Glucocorticoid receptor): 5.34

Cc1cc(C)c(S(=O)(=O)NC(C)Cc2c[nH]c3ccccc23)c(C)c1 (stereo unspecified)
Ratio IC50 (Homo sapiens [2]): 35
Ratio IC50 (Homo sapiens [3]): 7
pIC50 (Progesterone receptor): 5.85
pIC50 [1]: 6.54
pIC50 (Glucocorticoid receptor): 7.40

Cc1cc(C)c(S(=O)(=O)N[C@@H](C)Cc2c[nH]c3ccccc23)c(C)c1
Ratio IC50 (Homo sapiens [3]): 34
pIC50 (Progesterone receptor): 5.92
pIC50 [1]: 6.00
pIC50 (Glucocorticoid receptor): 7.54

CC(Cc1c[nH]c2ccccc12)NS(=O)(=O)c1cc(F)c(Br)cc1F (stereo unspecified)
pIC50 (Glucocorticoid receptor): 5.44

Cc1cc(C)c(S(=O)(=O)N[C@H](C)Cc2c[nH]c3ccccc23)c(C)c1
pIC50 (Progesterone receptor): < 5.70
pIC50 [1]: 6.28
pIC50 (Glucocorticoid receptor): < 5.70

Cc1ccc(S(=O)(=O)NC(C)Cc2c[nH]c3ccccc23)cc1 (stereo unspecified)
pIC50 (Glucocorticoid receptor): 5.24

CC(Cc1c[nH]c2ccccc12)NS(=O)(=O)c1ccc(Cl)c(Cl)c1Cl (stereo unspecified)
pIC50 (Glucocorticoid receptor): 5.72

Cc1cccc(S(=O)(=O)NC(C)Cc2c[nH]c3ccccc23)c1 (stereo unspecified)
pIC50 (Glucocorticoid receptor): < 5.00

COC(=O)[C@@H](Cc1c[nH]c2ccccc12)NS(=O)(=O)c1c(C)cc(C)cc1C
pIC50 (Glucocorticoid receptor): < 5.70

CC(Cc1c[nH]c2ccccc12)NS(=O)(=O)c1ccc(C(C)C)cc1 (stereo unspecified)
pIC50 (Progesterone receptor): 6.00
pIC50 [1]: 5.85
pIC50 (Glucocorticoid receptor): 6.12

CC(Cc1c[nH]c2ccccc12)NS(=O)(=O)c1c(Cl)cccc1Cl (stereo unspecified)
Ratio IC50 (Homo sapiens [3]): 6
pIC50 (Progesterone receptor): 6.77
pIC50 [1]: 5.80
pIC50 (Glucocorticoid receptor): 6.62

COc1ccc(S(=O)(=O)NC(C)Cc2c[nH]c3ccccc23)cc1 (stereo unspecified)
pIC50 (Glucocorticoid receptor): < 5.00

Cc1cc(C)c(C(=O)NC(C)Cc2c[nH]c3ccccc23)c(C)c1 (stereo unspecified)
pIC50 (Glucocorticoid receptor): < 5.70

CC(Cc1c[nH]c2ccccc12)NS(=O)(=O)c1ccccc1Cl (stereo unspecified)
pIC50 (Glucocorticoid receptor): 5.39

CC(Cc1c[nH]c2ccccc12)NS(=O)(=O)c1cccc(C#N)c1 (stereo unspecified)
pIC50 (Glucocorticoid receptor): < 5.00

Cc1cc(C)c(S(=O)(=O)NC(CO)Cc2c[nH]c3ccccc23)c(C)c1 (stereo unspecified)
pIC50 (Glucocorticoid receptor): < 5.70

Cc1cc(C)c(S(=O)(=O)N(C)C(C)Cc2c[nH]c3ccccc23)c(C)c1 (stereo unspecified)
pIC50 (Glucocorticoid receptor): 5.89

Cc1cc(S(=O)(=O)NC(C)Cc2c[nH]c3ccccc23)c(C)cc1Cl (stereo unspecified)
pIC50 (Glucocorticoid receptor): 5.74

Cc1c(Cl)cccc1S(=O)(=O)NC(C)Cc1c[nH]c2ccccc12 (stereo unspecified)
pIC50 (Glucocorticoid receptor): 6.09
